According to patent publication US11040035B2, “3-oxo-2,6-diphenyl-2,3-dihydropyridazine-4-carboxamides” (BAYER PHARMA AKTIENGESELLSCHAFT, priority 2016, dated 2021):
Like-named read-outs stand apart in the source and are kept apart here.

How the values were obtained:
[1] = biological target: T1, AHR (Homo sapiens, UniProt P35869); assay: In vitro assay 2: agonism in human cell line (transactivation assay)
T1 sequence (P35869 11-848): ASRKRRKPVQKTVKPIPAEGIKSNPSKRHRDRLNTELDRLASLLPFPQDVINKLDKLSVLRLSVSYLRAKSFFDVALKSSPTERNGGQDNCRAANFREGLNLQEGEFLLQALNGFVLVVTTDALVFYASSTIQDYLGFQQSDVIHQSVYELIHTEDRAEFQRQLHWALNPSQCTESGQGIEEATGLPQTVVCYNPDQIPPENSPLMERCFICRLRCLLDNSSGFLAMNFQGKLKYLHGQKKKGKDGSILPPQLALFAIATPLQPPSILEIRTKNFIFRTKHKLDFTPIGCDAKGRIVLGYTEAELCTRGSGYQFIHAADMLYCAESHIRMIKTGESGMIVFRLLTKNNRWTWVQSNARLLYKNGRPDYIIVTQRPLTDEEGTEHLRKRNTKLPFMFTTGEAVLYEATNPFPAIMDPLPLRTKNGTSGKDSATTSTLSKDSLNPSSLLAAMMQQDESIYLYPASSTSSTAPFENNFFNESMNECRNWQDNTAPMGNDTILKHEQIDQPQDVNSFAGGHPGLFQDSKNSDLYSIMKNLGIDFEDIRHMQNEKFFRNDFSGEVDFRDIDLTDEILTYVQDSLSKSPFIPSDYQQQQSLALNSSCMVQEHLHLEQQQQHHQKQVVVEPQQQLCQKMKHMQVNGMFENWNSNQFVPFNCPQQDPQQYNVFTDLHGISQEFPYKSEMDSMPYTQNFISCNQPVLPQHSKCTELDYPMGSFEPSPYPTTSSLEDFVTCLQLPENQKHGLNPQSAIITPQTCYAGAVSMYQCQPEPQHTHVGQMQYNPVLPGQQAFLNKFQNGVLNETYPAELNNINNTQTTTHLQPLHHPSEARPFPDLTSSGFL

[2] = test system: AHR-regulated gene CYP1A1; assay: In vitro assay 3: AHR-regulated CYP1A1 expression in human cell line (U937, qPCR)
[3] = biological target: T1, AHR; assay: In vitro assay 1: antagonism in human cell line (transactivation assay, kynurenic acid prestimulated); conditions: Assay 1: AHR-luc Hum Antagonism IC50 [M], 150 μM kynurenic acid, 20 hours, firefly luciferase
[4] = Assay 2: AHR-luc Hum Agonism IC50 [M], no kynurenic acid, 20 hours, firefly luciferase
[5] = Homo sapiens, U-937, 6 h, read-out: Assay 3: Hum CYP1A1 Antagonism IC50 [M], U937 cells, 200 μM KA, 6 hours, qPCR
[6] = read-out: Assay 3: Hum CYP1A1 Antagonism IC50, U937 cells, 200 μM KA, 6 hours, qPCR

| SMILES | IC50 [1, 4] [M] | IC50 [2, 5] [M] | IC50 [3] [M] | IC50 [2, 6] [M] | IC50 ([1]; read-out: Assay 2: AHR-luc Hum Agonism IC50, no kynurenic acid, 20 hours, firefly luciferase) [M] |
| --- | --- | --- | --- | --- | --- |
| O=C(NC[C@H](O)CO)c1cc(-c2ccc(C(F)(F)F)cc2)nn(-c2cccc(F)c2)c1=O [Example 264, (−)-N-[(2S)-2,3-Dihydroxypropyl]-2-(3-fluorophenyl)-3-oxo-6-[4-(trifluoromethyl)phenyl]-2,3-dihydropyridazine-4-carboxamide] | > 2e-05 | 8.01e-08 | 7.05e-08 | – | – |
| CC(C)C[C@@H](CO)NC(=O)c1cc(-c2ccc(Cl)cc2)nn(-c2cccc(F)c2)c1=O [Example 37, 6-(4-Chlorophenyl)-2-(3-fluorophenyl)-N-[(2S)-1-hydroxy-4-methylpentan-2-yl]-3-oxo-2,3-dihydropyridazine-4-carboxamide] | > 2e-05 | 1.56e-07 | 1.31e-07 | – | – |
| C[C@H](O)CCNC(=O)c1cc(-c2ccc(C(F)(F)F)cc2)nn(-c2cccc(F)c2)c1=O [Example 248, 2-(3-Fluorophenyl)-N-[(3S)-3-hydroxybutyl]-3-oxo-6-[4-(trifluoromethyl)phenyl]-2,3-dihydropyridazine-4-carboxamide] | > 2e-05 | 1.36e-07 | 9.73e-08 | – | – |
| O=C(NCC(O)C(F)(F)F)c1cc(-c2ccc(OC(F)(F)F)cc2)nn(-c2cccc(F)c2)c1=O (single isomer, unassigned) [Example 184, 2-(3-Fluorophenyl)-3-oxo-N-(3,3,3-trifluoro-2-hydroxypropyl)-6-[4-(trifluoromethoxy)phenyl]-2,3-dihydropyridazine-4-carboxamide] | – | – | 1.34e-07 | 1.29e-07 | > 2e-05 |

Now those with a lower IC50 [3], led by results:

| IC50 [1, 4] [M] | IC50 [2, 5] [M] | IC50 [3] [M] | IC50 [2, 6] [M] | IC50 ([1]; read-out: Assay 2: AHR-luc Hum Agonism IC50, no kynurenic acid, 20 hours, firefly luciferase) [M] | SMILES |
| --- | --- | --- | --- | --- | --- |
| > 2e-05 | 9.15e-08 | 5.51e-08 | – | – | O=C(NC(CO)CCO)c1cc(-c2ccc(C(F)(F)F)cc2)nn(-c2cccc(F)c2)c1=O (racemic) [Example 262, N-[(2RS)-1,4-Dihydroxybutan-2-yl]-2-(3-fluorophenyl)-3-oxo-6-[4-(trifluoromethyl)phenyl]-2,3-dihydropyridazine-4-carboxamide] |
| > 2e-05 | – | 3.49e-08 | 3.83e-08 | – | Cc1ccc(-c2cc(C(=O)NCC(O)C(C)C)c(=O)n(-c3cc(F)cc(F)c3)n2)cc1 (single isomer, unassigned) [Example 57, 2-(3,5-Difluorophenyl)-N-(2-hydroxy-3-methylbutyl)-6-(4-methylphenyl)-3-oxo-2,3-dihydropyridazine-4-carboxamide] |
| > 2e-05 | – | 1.84e-08 | 3.52e-08 | – | O=C(NCC(O)C(F)(F)F)c1cc(-c2ccc(Cl)cc2)nn(-c2cccc(F)c2)c1=O (single isomer, unassigned) [Example 26, 6-(4-Chlorophenyl)-2-(3-fluorophenyl)-3-oxo-N-(3,3,3-trifluoro-2-hydroxypropyl)-2,3-dihydropyridazine-4-carboxamide] |
| > 2e-05 | 1.64e-08 | 1.57e-08 | – | – | O=C(N[C@@H]1CCCC[C@@H]1O)c1cc(-c2ccc(Cl)cc2)nn(-c2cccc(F)c2)c1=O (single isomer, unassigned) [Example 104, 6-(4-Chlorophenyl)-2-(3-fluorophenyl)-N-(cis-2-hydroxycyclohexyl)-3-oxo-2,3-dihydropyridazine-4-carboxamide] |
| > 2e-05 | 6.9e-09 | 9.6e-09 | – | – | CC(C)(O)[C@@H](NC(=O)c1cc(-c2ccc(OC(F)(F)F)cc2)nn(-c2cccc(F)c2)c1=O)C1CC1 [Example 379, N-[(1S)-1-cyclopropyl-2-hydroxy-2-methylpropyl]-2-(3-fluorophenyl)-3-oxo-6-[4-(trifluoromethoxy)phenyl]-2,3-dihydropyridazine-4-carboxamide] |
| > 2e-05 | – | 5.84e-09 | 1.85e-08 | – | O=C(N[C@@H]1COC[C@@H]1O)c1cc(-c2ccc(C(F)(F)F)cc2)nn(-c2cccc(F)c2)c1=O (single isomer, unassigned) [Example 344, (+)-2-(3-fluorophenyl)-N-(cis-4-hydroxytetrahydrofuran-3-yl)-3-oxo-6-[4-(trifluoromethyl)phenyl]-2,3-dihydropyridazine-4-carboxamide] |
